We go through 5 compounds from patent publication US7329665B2, “Quinazolinone derivative” (Dainippon Sumitomo Pharma Co., Ltd., priority 2001, dated 2008).

This assay relates to rhythmic contractions of the bladder. The assay can be described thus: Effect on rhythmic contractions of bladder (cystometry in urethane-anesthetized rats, i.v. administration). Particulars: female SD-rats under urethane anesthesia, intravenous, ascending doses in 10% PEG, relative to vehicle; for Contractile amplitude: ED30: mean amplitude of bladder contraction during 10-minute period after administration; for Contractile frequency: ED30: mean frequency of bladder contraction during 10-minute period after administration. The format is in vivo. The method, then: Effect on Rhythmic Contractions of Bladder This test was carried out by some modification of the method of Hedge et al. [Hedge S S. Choppin A. Bonhaus D. Briaud S. Loeb M. Moy T M. Loury D. Eglen R M., British Journal of Pharmacology. 120(8):1409-18, 1997]. Female SD-rats were subjected to abdominal midline incision under urethane anesthesia (0.6 g/kg, s.c. and i.p.), the ureters were ligated, and its kidney side was cut off. A polyethylene cannula was inserted from the urethra into the bladder and the urethra was ligated. The other end of the cannula was connected to a three way connector, to which a constant infusion pump having a 20 ml attached syringe and a pressure transducer for cystometry were also connected. A cannula for administration of a test sample was inserted into the jugular vein and a cannula for measurement of blood pressure and heart rate was inserted into the carotid artery. The intravesical pressure, blood pressure and heart rate were continuously recorded on a polygraph. Physiological saline was infused until rhythmic contractions of the bladder were observed, and after having confirmed stable rhythmic contractions of the bladder, vehicle (10% PEG) and solutions of a test sample dissolved in 10% PEG were administered intravenously in turn from its lower dose. The mean of amplitude and frequency of bladder contraction during a 10-minute period after administration were measured at each dose level, and their rates of change relative to the values obtained when the vehicle alone was administered were calculated, thereby determining ED30 values for the contractile amplitude and the contractile frequency, respectively. It is apparent from Table 1 that the compounds of the present invention depressed not only the contractile amplitude but also the contractile frequency.

Consider `O=C1Nc2ccccc2C(c2ccccc2)N1C1CCN(Cc2cccc(OC(F)(F)F)c2)CC1` (single isomer, unassigned; (+)) [Example 1, (+)-3-{1-[3-(trifluoromethoxy)benzyl]piperidin-4-yl}-4-phenyl-3,4-dihydro-2(1H)-quinazolinone], for which the “Contractile amplitude: ED30” value amounted to 1.71 mg/kg and the “Contractile frequency: ED30” value is listed as 1.31 mg/kg.

In the case of `Cc1cccc(CN2CCC(N3C(=O)Nc4ccccc4C3C(C)C)CC2)n1` (single isomer, unassigned; (+)) [Example 3, (+)-4-isopropyl-3-{1-[(6-methyl-2-pyridinyl)methyl]piperidin-4-yl}-3,4-dihydro-2(1H)-quinazolinone], the “Contractile amplitude: ED30” value amounted to 0.94 mg/kg and the “Contractile frequency: ED30” value amounted to 1.79 mg/kg.

`CCCc1cccc(CN2CCC(N3C(=O)Nc4ccccc4C3c3ccccc3)CC2)c1` (stereo not shown) [Example 2-1, Optically Active Form of 3-[1-(3-propylphenylmethyl)piperidin-4-yl]-4-phenyl-3,4-dihydro-2(1H)-quinazolinone]: the “Contractile amplitude: ED30” value is given as 1.09 mg/kg and the “Contractile frequency: ED30” value was 0.70 mg/kg.

For `CC(C)Oc1cccc(CN2CCC(N3C(=O)Nc4ccccc4C3c3ccccc3)CC2)c1` (stereo not shown) [Example 2-3, Optically Active Form of 3-[1-(3-isopropoxyphenylmethyl)piperidin-4-yl]-4-phenyl-3,4-dihydro-2(1H)-quinazolinone], the “Contractile amplitude: ED30” value was 1.10 mg/kg and the “Contractile frequency: ED30” value worked out at 1.54 mg/kg.

With `O=C1Nc2ccccc2C(c2ccccc2)N1C1CCN(Cc2cccc(OCC(F)(F)F)c2)CC1` (stereo not shown) [Example 2-4, Optically Active Form of 3-{1-[3-(2,2,2-trifluoroethoxy)phenylmethyl]piperidin-4-yl}-4-phenyl-3,4-dihydro-2(1H)-quinazolinone], the “Contractile amplitude: ED30” value was 1.42 mg/kg and the “Contractile frequency: ED30” value turned out to be 1.35 mg/kg.
